The values that follow come from US20130345257A1, “COMPOSITION FOR LUPUS NEPHRITIS AND METHODS OF MAKING AND USING THE SAME” (The Regents of the University of California, priority 2012, published 2013).

Data set [1] deals with CD4+ regulatory T cells (CD4+ Foxp3+) in PBMC. The data set is described as follows: CD4+ Tregs within PBMC of treated mice. The format is in vivo, mouse. The note with it: LAQ 1 or 25 mg/kg; compared to the other groups. From the text: FIG. 7 depicts an exemplary embodiment: A) illustrates gating technique used to identify CD4+ regulatory T cells (CD4+ Tregs), which are shown as the dotted cloud inside the box insert and also labeled as CD4+ Foxp3+.

The subject of data set [2] is CD3/28-stimulated CD4^+CD25^− T cell proliferation. The data set is described as follows: T cell suppression assay and function of MDSC sorted from spleens of treated mice. The following applies: data not shown. The format is cell-based, mouse. The method, then:
Single cell suspensions of splenocytes or kidney cells were prepared using cell strainers (Fisher), followed by red blood cell lysis. Kidney lymphocytes were separated from connective tissue by centrifugation (15 minutes at 400g) in 30% Percoll (GE Healthcare). CD4^+CD25^− cells from spleen and kidney were isolated using the CD4^+CD25^+ regulatory T cell isolation kit according to manufacturer's protocol (Miltenyi). CD11b+ cells were isolated using EasySep mouse CD11b positive selection kit (StemCell Technologies), surface stained for Ly6C and Ly6G prior to sorting myeloid-derived suppressor cells (MDSC) using FACSAria II. Populations were >95% pure by FACS analysis. CD4^+CD25^− cells were labelled with 5 µM CFSE and stimulated with Dynabeads mouse T-cell activator CD3/CD28 (Invitrogen). Stimulated CD4^+CD25^− cells (4×10^4) were co-cultured with monocytic-MDSC(CD11b^+Ly6C^+Ly6G^−) or granulocytic-MDSC(CD11b^+Ly6C^+Ly6G^+) at a 1:1 ratio. Proliferation of CD4^+ cells was assayed after 4 days of incubation at 37° C., 5% CO2 by flow cytometry.

Data set [3] concerns monocyte/macrophages (CD11b^+Ly6C^−Ly6G^−). The data set is described as follows: Expression of activation/costimulatory molecules on splenic monocyte/macrophages of treated mice. It counts as cell-based, mouse. The source says:
Spleens were removed 7 weeks after initiation of laquinimod treatment in PU^lo animals. Splenocytes were stimulated with TLR4 (LPS), 7 (imiquimod), or 9 (ODN) agonists, or PMA plus ionomycin, as described. FACS plots are representative of one experiment showing intracellular production of (A) IL-10 or (B) TNFα by monocyte/macrophages (CD11b+Ly6C−Ly6G−), and (C) IFNγ by CD4^+ T cells from laquinimod- or vehicle-treated mice. Graphs of IL-10, TNFα, and IFNγ production represent mean±SEM of cytokine production (n=6/gp, *p<0.05, **p<0.01, ***p<0.001 using two way ANOVA). […] Graphs depict mean±SD of mean fluorescence intensity (MFI) and are from three independent experiments with similar results. (n=4/gp, *p<0.05, **p<0.01, ***p<0.001 using t test).
Single-cell suspensions from spleen or kidneys were stained for extracellular markers for 20 min at 4° C. in PBS/1% FBS. Intracellular staining for Foxp3 and cytokines was performed using the Foxp3 Fixation/Permeabilization kit according to the manufacturer's protocol (eBioscience). Cells were acquired on a FACS LSR II (BD) and data was analyzed using Flowjo (Tree Star).

The subject of another data set is MS patients. The following applies: compared to placebo; cited from earlier work.
Another data set has as its system patients. The following applies: dose of 2 g daily; dose-dependent; cited from earlier work.

Entries after “also recorded” stand apart in the source; their conditions may differ.

With `CCN(C(=O)c1c(O)c2c(Cl)cccc2n(C)c1=O)c1ccccc1` [LAQ, 5-chloro-N-ethyl-4-hydroxy-1-methyl-2-oxo-N-phenyl-1,2-dihydroquinoline-3-carboxamide], the “Percentage of CD4+ Tregs within PBMC” value in data set [1] was “significantly higher percent”. Moreover, the “Production of arginase and reactive oxygen species (MDSC)” value in data set [2] is listed as “not affected”. The “Expression of MHC 11, CD86 and CD80 on M/M after in vitro stimulation with LPS” value in data set [3] (LPS 1 μg/mL) is recorded as “significantly lower”. Besides, in data set [3] (vs vehicle-treated animals, listed as laquinimod), the “Ex vivo expression of MHC 11, CD86 and CD40 on M/M” value is on record as “decreased expression; also recorded: down-regulated”. Besides, the “New MRI lesions in the brains of patients with RRMS” value with MS patients is recorded as “significant reduction”.
On to `COc1c(C)c2c(c(O)c1C/C=C(\C)CCC(=O)OCCN1CCOCC1)C(=O)OC2` [MMF, mycophenolate mofetil, reference compound], for which, in the data set on patients, the “Patients with gastrointestinal side effects” value is recorded as “up to 20%”.
